According to patent US20060134243A1, “Method of using extracts of epimedium species” (Bionovo, Inc., priority 2004, published 2006):

Assays:
[1] = system: primary invasive breast cancer; details: women at high risk for breast cancer; cited from earlier work
[2] = system: estrogen receptor-positive breast cancer; details: five years of therapy; cited from earlier work
[3] = system: TNF-RE-tk-Luc; assay: Effect of antiestrogens on TNF-RE-tk-Luc (Example 2); type: cell-based, human; details: for effect on the repression induced by E2: TNF-RE-tk-Luc; for activation of TNF-RE-tk-Luc: antiestrogens, in contrast to E2
Source text: (§1) Plasmid Construction. A PstI to AhaII fragment from the human TNF-α gene, pLT, was cloned upstream of the luciferase cDNA. […] ERβ mutants were created with QuikChange site-directed mutagenesis kits (Stratagene), by using oligonucleotides containing the mutation. The mutants were sequenced with Sequenase kits (Amersham Pharmacia) to verify the presence of the mutation.
(§2) For experiments, cells were collected, transferred to a cuvette, and then electroporated with a Bio-Rad gene pulser as described previously using 3 μg of reporter plasmid and 1 μg of ERα or ERβ expression vectors. After electroporation, the cells were re-suspended in media and plated at 1 ml/dish in 12-well multiplates. […] The concentration of hormone required to produce a half-maximal induction (EC50) or inhibition (IC50) of luciferase activity was calculated with the Prism curve-fitting program (Graph Pad Software, version 2.0b). […] The cells were plated in duplicate at a density of 25,000 cells/35-mm plate in tissue culture medium containing 3% stripped fetal bovine serum. […] After 8 days the cells were counted with a Coulter counter.

[4] = biological target: T1, ERβ (Homo sapiens, UniProt Q92731); assay: Repression of TNF-α activation of TNF-RE-tk-Luc in U2OS cells with transfected ERβ; type: cell-based
T1 construct: expressed in transfected cells
Source text: as §1, §2
The extracts (a and b) were than decanted and only the soluble material was used.

[5] = biological target: T1, ERβ; assay: Repression of TNF-α activation of TNF-RE-tk-Luc with ERβ (Example 2); type: cell-based; details: in the presence of ERβ
Source text: as §1, §2

[6] = system: breast cancer; details: among the 5129 women in the treatment group; median follow-up of 40 months; cited from earlier work

T1 sequence (Q92731 whole entry): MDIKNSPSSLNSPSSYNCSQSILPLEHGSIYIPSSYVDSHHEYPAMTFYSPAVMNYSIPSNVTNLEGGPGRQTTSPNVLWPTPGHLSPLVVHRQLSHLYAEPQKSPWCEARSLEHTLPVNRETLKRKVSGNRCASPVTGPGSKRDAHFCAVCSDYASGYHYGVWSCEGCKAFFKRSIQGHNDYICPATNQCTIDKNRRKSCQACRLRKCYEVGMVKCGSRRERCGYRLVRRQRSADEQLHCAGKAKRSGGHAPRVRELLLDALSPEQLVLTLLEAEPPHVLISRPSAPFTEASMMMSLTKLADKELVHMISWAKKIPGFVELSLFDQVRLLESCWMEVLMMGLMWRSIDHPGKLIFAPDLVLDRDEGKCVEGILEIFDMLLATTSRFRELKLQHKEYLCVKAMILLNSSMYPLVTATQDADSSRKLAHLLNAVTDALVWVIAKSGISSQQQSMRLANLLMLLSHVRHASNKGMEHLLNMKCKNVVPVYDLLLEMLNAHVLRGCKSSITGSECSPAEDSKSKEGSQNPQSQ

| SMILES | reduction of the risk of primary invasive breast cancer [1] | reduction of mortality from breast cancer [2] | reduction of the risk of recurrences [2] | effect on the repression induced by E2 [3] | activation of TNF-RE-tk-Luc [3] | repression of TNF-α activation of TNF-RE [4] | repression of TNF-α activation of TNF-RE-tk-Luc [5] | cases of breast cancer [6] |
| --- | --- | --- | --- | --- | --- | --- | --- | --- |
| CC/C(=C(\c1ccccc1)c1ccc(OCCN(C)C)cc1)c1ccccc1 [tamoxifen] | 49% | 22% | 42% | abolished the repression induced by E2 | 2 fold | – | – | – |
| C[C@]12CC[C@@H]3c4ccc(O)cc4CC[C@H]3[C@@H]1CC[C@@H]2O [E2, estradiol] | – | – | – | – | – | 100% | 60-80% | – |
| C[C@]12CC[C@@H]3c4ccc(O)cc4C[C@@H](CCCCCCCCC[S+]([O-])CCCC(F)(F)C(F)(F)F)[C@H]3[C@@H]1CC[C@@H]2O (stereo partly drawn) [ICI 182,780] | – | – | – | abolished the repression induced by E2 | 2 fold | – | – | – |
| O=C(c1ccc(OCCN2CCCCC2)cc1)c1c(-c2ccc(O)cc2)sc2cc(O)ccc12 [raloxifene] | – | – | – | abolished the repression induced by E2 | 2 fold | – | – | 13 |
